We go through 1 compound from ChEMBL document CHEMBL2203210, “SAR and in vivo evaluation of 4-aryl-2-aminoalkylpyrimidines as potent and selective Janus kinase 2 (JAK2) inhibitors” (Bioorg Med Chem Lett, 2012).

The term IC50 denotes the concentration that gives 50% inhibition. In general, Cmax refers to the maximum level reached in the sampled fluid or tissue. A word on the half-life: it is how long it takes for the measured level to halve. What is called inhibition in vivo is the percentage by which the read-out fell short of the control.

The target in series [1] is Cytochrome P450 2C9 (Homo sapiens, UniProt P11712). Put plainly: Inhibition of CYP2C9. It is filed as ADME.
Sequence of Cytochrome P450 2C9 (P11712 whole entry): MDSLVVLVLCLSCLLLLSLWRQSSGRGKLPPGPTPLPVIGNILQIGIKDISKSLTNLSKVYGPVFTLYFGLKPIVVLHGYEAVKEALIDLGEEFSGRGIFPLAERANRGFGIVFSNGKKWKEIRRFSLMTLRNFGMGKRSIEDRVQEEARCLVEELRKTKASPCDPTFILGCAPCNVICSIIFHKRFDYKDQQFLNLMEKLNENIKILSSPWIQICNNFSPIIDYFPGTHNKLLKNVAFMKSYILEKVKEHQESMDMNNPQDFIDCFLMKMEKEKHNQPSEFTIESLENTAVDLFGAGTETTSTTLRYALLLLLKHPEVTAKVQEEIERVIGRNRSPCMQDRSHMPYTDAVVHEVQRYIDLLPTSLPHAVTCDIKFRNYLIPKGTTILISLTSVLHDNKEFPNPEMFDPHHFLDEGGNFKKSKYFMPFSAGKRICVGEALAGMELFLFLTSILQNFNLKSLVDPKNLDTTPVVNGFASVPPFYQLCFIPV
In series [2] the target is Cytochrome P450 2D6 (Homo sapiens, UniProt P10635). Description: Inhibition of CYP2D6. It counts as ADME.
Sequence of Cytochrome P450 2D6 (P10635 whole entry): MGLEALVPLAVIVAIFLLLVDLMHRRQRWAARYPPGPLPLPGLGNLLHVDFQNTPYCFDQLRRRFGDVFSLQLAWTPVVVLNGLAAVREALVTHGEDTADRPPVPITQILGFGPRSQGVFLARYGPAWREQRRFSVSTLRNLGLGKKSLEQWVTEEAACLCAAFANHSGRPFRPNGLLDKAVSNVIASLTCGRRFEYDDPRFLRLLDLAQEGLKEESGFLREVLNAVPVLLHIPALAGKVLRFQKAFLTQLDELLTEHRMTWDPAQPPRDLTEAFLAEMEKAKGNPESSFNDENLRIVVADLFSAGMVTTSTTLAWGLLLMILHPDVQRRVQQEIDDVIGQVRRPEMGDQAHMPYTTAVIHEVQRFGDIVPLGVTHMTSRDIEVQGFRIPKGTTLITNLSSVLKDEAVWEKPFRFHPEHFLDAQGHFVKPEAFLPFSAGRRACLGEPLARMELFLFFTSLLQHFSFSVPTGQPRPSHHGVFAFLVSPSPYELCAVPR
The target in series [3] is Platelet-derived growth factor receptor beta (Homo sapiens, UniProt P09619). Put plainly: Inhibition of PDGFRB.
Sequence of Platelet-derived growth factor receptor beta (P09619 whole entry): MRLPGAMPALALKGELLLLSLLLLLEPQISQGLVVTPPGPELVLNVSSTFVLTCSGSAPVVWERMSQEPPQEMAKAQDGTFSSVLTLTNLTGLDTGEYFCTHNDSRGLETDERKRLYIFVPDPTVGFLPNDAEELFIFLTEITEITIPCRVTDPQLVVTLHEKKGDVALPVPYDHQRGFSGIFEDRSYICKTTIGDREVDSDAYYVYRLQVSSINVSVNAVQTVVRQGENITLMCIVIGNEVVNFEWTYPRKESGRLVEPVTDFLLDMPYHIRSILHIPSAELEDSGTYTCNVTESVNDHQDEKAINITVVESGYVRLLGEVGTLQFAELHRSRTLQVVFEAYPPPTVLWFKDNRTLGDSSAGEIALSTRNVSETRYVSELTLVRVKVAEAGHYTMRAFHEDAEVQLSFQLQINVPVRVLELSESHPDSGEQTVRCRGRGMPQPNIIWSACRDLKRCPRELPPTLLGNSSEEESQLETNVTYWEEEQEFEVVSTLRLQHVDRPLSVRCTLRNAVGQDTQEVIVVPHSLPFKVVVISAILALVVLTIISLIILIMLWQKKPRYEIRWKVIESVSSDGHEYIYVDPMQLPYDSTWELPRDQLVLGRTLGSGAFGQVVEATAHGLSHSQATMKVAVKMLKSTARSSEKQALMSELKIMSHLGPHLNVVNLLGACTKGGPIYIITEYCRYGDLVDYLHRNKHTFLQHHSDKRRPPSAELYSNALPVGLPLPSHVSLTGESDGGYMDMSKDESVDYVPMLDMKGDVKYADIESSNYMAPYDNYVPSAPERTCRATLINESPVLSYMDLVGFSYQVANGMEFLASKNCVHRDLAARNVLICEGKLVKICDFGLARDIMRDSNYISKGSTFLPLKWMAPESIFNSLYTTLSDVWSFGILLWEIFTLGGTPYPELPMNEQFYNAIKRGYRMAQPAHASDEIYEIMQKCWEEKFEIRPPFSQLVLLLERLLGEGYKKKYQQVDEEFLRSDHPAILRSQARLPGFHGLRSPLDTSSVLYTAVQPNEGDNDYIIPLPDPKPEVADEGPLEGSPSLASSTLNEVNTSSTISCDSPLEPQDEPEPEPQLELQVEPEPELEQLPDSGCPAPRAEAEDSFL
Series [4] deals with Vascular endothelial growth factor receptor 3 (Homo sapiens, UniProt P35916). Put plainly: Inhibition of FLT4.
Series [5] addresses Platelet-derived growth factor receptor alpha (Homo sapiens, UniProt P16234). Description: Inhibition of PDGFRA.
The target of series [6] is Inhibitor of nuclear factor kappa-B kinase subunit beta (Homo sapiens, UniProt O14920). Description: Inhibition of IKKbeta.
Sequence of Inhibitor of nuclear factor kappa-B kinase subunit beta (O14920 whole entry): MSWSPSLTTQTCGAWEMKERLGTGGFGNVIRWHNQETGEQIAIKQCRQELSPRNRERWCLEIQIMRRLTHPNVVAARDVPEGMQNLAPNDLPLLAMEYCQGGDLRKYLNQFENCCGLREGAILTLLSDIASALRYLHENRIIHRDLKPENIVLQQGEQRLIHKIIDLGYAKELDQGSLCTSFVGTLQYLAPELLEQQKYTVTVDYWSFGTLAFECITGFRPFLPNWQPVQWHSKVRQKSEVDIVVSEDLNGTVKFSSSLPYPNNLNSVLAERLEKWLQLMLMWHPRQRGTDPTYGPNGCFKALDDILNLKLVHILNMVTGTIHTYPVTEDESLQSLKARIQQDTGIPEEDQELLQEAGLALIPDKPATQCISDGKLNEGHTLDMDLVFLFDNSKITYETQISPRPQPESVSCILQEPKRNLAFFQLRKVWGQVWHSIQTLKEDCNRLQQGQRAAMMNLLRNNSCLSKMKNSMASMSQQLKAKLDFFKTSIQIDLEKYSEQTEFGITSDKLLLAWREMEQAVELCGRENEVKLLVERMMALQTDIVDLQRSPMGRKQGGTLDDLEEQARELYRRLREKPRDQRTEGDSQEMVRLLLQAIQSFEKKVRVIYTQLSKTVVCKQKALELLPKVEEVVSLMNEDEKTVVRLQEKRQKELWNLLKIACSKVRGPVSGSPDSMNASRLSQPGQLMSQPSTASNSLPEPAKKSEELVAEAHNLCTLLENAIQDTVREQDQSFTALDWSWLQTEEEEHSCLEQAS
Series [7] deals with Canis familiaris. Put plainly: Dose normalized AUC in Beagle dog at 3 mg/kg, po. It counts as ADME, organism-based, Canis lupus familiaris. The arrangement: dose 3 mg/kg, route oral. Conditions: in vivo.
The subject of series [8] is Canis familiaris. Description: Dose normalized AUC in Beagle dog at 3 mg/kg, iv. Particulars: in vivo. It is filed as ADME, organism-based, Canis lupus familiaris. Also on record: dose 3 mg/kg, route intravenous.
Series [9] concerns Mus musculus. Put plainly: Dose normalized AUC in athymic nude mouse at 10 mg/kg, iv. It is filed as ADME, organism-based. Conditions: in vivo. Also on record: dose 10 mg/kg, route intravenous.
The nature of series [10]: Cmax in cynomolgus monkey at 3 mg/kg, po. It counts as ADME, organism-based, Macaca fascicularis. Also on record: dose 3 mg/kg, route oral. Particulars: in vivo.
The nature of series [11]: Cmax in athymic nude mouse at 10 mg/kg, po. Particulars: in vivo. It is filed as ADME, organism-based. The arrangement: dose 10 mg/kg, route oral.
A short description of series [12]: Cmax in athymic nude mouse at 10 mg/kg, iv. It counts as ADME, organism-based. Also on record: dose 10 mg/kg, route intravenous. Particulars: in vivo.
A short description of series [13]: Cmax in CD rat at 5 mg/kg, iv. It is filed as ADME, organism-based. Also on record: dose 5 mg/kg, route intravenous. Conditions: in vivo.
Series [14] is described as follows: Half life in Beagle dog at 3 mg/kg, po. It is filed as ADME, organism-based, Canis lupus familiaris. Also on record: dose 3 mg/kg, route oral. Particulars: in vivo.
Series [15] can be described thus: Half life in cynomolgus monkey at 3 mg/kg, po. It is filed as ADME, organism-based, Macaca fascicularis. Also on record: dose 3 mg/kg, route oral. Conditions: in vivo.
Series [16] in a line: Half life in cynomolgus monkey at 3 mg/kg, iv. It is filed as ADME, organism-based, Macaca fascicularis. The arrangement: dose 3 mg/kg, route intravenous. Particulars: in vivo.
Series [17] in a line: Half life in athymic nude mouse at 10 mg/kg, po. Conditions: in vivo. Also on record: dose 10 mg/kg, route oral. It counts as ADME, organism-based.
The test system of series [18] is Mus musculus. Description: Volume of distribution in athymic nude mouse at 10 mg/kg, po and iv. It counts as ADME, organism-based. Conditions: in vivo. The arrangement: dose 10 mg/kg, route oral.
The nature of series [19]: Metabolic stability in mouse liver microsomes assessed as compound remaining after 30 mins. It counts as ADME, Microsome. Conditions: read-out: Stability. (In general: Liver microsomes are a subcellular fraction often used to study metabolism.)
For series [20], the system named is Mus musculus. Description: Inhibition of JAK2 in HEL 92.1.7 cells xenografted in nude mouse assessed as inhibition of STAT1 phosphorylation at 30 mg/kg, po after 4 hrs relative to vehicle-treated control. It is filed as functional.
The nature of series [21]: Plasma concentration in nude mouse xenografted with HEL 92.1.7 cells at 300 mg/kg, po after 4 hrs. It is filed as ADME, organism-based. The arrangement: dose 300 mg/kg, route oral.
Series [22] is described as follows: Plasma concentration in nude mouse xenografted with HEL 92.1.7 cells at 100 mg/kg, po after 4 hrs. The arrangement: dose 100 mg/kg, route oral. It counts as ADME, organism-based.
Series [23] concerns the target T1, Tyrosine-protein kinase JAK3 (Homo sapiens, UniProt P52333).
T1 sequence (P52333 whole entry): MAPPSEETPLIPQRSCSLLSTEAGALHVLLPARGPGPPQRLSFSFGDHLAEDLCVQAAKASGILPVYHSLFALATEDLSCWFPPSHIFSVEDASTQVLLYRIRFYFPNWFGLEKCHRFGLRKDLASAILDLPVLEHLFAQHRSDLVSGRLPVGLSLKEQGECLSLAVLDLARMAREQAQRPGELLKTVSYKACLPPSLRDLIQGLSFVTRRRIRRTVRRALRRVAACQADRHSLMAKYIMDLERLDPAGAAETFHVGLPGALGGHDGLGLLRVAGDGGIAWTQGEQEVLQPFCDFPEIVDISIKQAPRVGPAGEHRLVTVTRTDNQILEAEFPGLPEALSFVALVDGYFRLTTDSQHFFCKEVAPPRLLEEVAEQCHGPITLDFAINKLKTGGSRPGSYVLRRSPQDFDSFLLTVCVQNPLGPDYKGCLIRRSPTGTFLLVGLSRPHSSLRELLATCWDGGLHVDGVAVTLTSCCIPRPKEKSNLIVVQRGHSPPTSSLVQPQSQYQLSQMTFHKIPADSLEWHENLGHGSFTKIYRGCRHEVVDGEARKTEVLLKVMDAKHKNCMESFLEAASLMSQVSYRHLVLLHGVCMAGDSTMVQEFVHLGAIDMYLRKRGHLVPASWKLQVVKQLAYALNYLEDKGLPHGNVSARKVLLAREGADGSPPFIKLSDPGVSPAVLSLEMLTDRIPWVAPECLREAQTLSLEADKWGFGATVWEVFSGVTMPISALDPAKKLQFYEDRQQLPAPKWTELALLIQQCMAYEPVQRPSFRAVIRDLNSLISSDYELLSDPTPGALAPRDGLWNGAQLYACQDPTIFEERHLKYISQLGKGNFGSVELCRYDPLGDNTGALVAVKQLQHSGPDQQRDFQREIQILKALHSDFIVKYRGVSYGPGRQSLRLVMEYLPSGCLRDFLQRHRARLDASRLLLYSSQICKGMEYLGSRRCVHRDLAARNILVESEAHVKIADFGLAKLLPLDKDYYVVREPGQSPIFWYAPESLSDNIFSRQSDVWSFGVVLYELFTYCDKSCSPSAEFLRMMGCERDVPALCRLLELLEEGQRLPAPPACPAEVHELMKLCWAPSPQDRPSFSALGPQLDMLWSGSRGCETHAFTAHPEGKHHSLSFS

Sequence of Platelet-derived growth factor receptor alpha (P16234 whole entry): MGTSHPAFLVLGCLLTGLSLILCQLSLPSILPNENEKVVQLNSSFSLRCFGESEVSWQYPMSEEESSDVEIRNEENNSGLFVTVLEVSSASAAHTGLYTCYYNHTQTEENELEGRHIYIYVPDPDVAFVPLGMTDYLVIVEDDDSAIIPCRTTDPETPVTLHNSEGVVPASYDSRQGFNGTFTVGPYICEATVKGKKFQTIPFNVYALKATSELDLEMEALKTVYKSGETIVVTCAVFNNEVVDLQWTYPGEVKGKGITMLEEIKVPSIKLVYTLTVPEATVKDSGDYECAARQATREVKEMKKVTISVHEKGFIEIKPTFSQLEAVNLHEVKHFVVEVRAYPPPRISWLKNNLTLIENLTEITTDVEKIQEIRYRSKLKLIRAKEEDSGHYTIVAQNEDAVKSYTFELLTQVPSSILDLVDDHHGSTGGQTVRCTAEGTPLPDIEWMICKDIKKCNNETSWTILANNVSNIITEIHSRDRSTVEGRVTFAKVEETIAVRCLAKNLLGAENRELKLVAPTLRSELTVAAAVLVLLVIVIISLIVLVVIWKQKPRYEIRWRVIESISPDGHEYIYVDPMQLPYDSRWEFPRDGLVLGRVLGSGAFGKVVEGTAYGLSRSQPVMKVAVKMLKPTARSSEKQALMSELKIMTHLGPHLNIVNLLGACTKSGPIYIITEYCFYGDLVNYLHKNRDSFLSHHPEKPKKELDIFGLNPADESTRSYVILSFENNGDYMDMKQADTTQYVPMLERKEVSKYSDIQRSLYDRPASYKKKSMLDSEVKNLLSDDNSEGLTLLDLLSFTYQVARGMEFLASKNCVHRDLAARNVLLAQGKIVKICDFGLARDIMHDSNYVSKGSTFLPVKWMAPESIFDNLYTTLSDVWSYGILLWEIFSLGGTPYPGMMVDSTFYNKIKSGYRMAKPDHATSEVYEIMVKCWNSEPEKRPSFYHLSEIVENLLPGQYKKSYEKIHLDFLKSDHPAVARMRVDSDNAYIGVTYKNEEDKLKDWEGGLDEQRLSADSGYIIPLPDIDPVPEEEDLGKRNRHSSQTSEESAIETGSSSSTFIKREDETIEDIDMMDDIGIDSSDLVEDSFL

For the compound `O=C(Nc1ccc(-c2ccnc(Nc3ccc(N4CCOCC4)cc3)n2)cc1)[C@H]1CCCN1`, the INH entry in series [1] and in series [2] was “>= 20 uM” throughout. Besides, the IC50 came to 0.125 µM in series [3]; 0.555 µM in [4]; 0.547 µM in series [5]; 0.375 µM in [6]; 0.214 µM in series [23]. Moreover, the AUC/dose stood at 0.68 µM·kg·h/mg in series [7], 1.47 µM·kg·h/mg in series [8] and 0.42 µM·kg·h/mg in series [9]. The Cmax in series [10] came out at 0.49 µM; in series [11], 0.57 µM; in [12] it was 5.24 µM; in series [13], 13 µM. Besides, the half-life in [14] was 5.06 h; in [15], 3.36 h; in series [16], 3.28 h; in series [17], 1.94 h. In addition, the Vd in series [18] came out at 5.319 L/kg. Besides, in [19], the remaining at 0.5 h came out at 62%. The inhibition in vivo at 30 mg/kg in series [20] was found to be 41%. Also, the results for the concentration at 4 h in series [21] and in series [22] were 20.2 µM and 5.35 µM, respectively.
